{
  "source": "patent US9718774B2",
  "about": "“Indole carboxamide derivatives as P2X7 receptor antagonist” (ACTELION PHARMACEUTICALS LTD, priority 2012, dated 2017)",
  "target": "T1, human recombinant P2X7 receptor (Homo sapiens, UniProt Q99572)",
  "T1 construct": "expressed in transfected cells",
  "T1 sequence (Q99572 1-595)": "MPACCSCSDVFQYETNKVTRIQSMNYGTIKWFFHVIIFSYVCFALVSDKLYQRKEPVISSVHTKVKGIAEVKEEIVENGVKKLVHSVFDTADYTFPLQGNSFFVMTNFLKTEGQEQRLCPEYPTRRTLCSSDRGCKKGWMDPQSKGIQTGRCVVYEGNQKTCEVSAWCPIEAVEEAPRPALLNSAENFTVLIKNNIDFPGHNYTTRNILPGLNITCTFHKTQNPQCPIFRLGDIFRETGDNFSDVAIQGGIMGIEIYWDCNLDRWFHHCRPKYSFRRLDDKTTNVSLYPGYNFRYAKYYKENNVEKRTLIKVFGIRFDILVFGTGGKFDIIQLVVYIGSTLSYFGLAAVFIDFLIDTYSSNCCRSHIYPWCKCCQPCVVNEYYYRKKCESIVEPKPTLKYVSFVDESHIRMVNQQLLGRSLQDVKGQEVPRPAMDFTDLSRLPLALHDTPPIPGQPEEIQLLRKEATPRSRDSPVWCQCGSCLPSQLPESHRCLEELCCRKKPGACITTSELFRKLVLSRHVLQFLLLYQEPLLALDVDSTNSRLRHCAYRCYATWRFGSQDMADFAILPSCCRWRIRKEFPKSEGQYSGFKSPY",
  "test": "YO-PRO assay: P2X7 receptor antagonistic activity in HEK cells stably expressing P2X7",
  "format": "cell-based",
  "method_in_brief": "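HEK cells stably transfected with human P2X7 (cloned from blood cDNA) were loaded with 0.5 μM YO-PRO-1. They were exposed to antagonist (10 concentrations, top 10 μM, 1/3 steps, duplicate) together with 250 μM ATP for 90 min, and dye uptake was read by FLIPR at ex 485/em 530. IC50 from maximum fluorescence versus concentration.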",
  "key": {"[1]": {"details": "antagonistic activity with respect to the P2X7 receptor, read-out: IC50"}},
  "note": "Like-named read-outs stand apart in the source and are kept apart here.",
  "data": [
    {"compound": "Cc1ncc(C(CNC(=O)c2ccc3[nH]ccc3c2Cl)N2CCOCC2)cn1", "note": "(single isomer, unassigned) [Example 4, 4-Chloro-1H-indole-5-carboxylic acid [2-(2-methyl-pyrimidin-5-yl)-2-morpholin-4-yl-ethyl]-amide]", "values": [
      {"measurement": "IC50", "setting": "[1]", "result": 9.4, "unit": "nM"}
    ]},
    {"compound": "Cc1ncc(C(CNC(=O)c2ccc3[nH]ccc3c2Cl)N2CCC(F)(F)CC2)cn1", "note": "(single isomer, unassigned) [Example 5, 4-Chloro-1H-indole-5-carboxylic acid [2-(4,4-difluoro-piperidin-1-yl)-2-(2-methyl-pyrimidin-5-yl)-ethyl]-amide]", "values": [
      {"measurement": "IC50", "setting": "[1]", "result": 7.9, "unit": "nM"}
    ]},
    {"compound": "Cc1ncc(C(CNC(=O)c2ccc3[nH]ccc3c2Cl)N2CCC(F)(F)CC2)cn1", "note": "(single isomer, unassigned) [Example 6, 4-Chloro-1H-indole-5-carboxylic acid [2-(4,4-difluoro-piperidin-1-yl)-2-(2-methyl-pyrimidin-5-yl)-ethyl]-amide]", "values": [
      {"measurement": "IC50", "setting": "[1]", "result": 6.8, "unit": "nM"}
    ]},
    {"compound": "Cc1ncc(C(CNC(=O)c2ccc3[nH]ccc3c2Cl)N2CC(C)OC(C)C2)cn1", "note": "(single isomer, unassigned) [Example 41, 4-Chloro-1H-indole-5-carboxylic acid [2-(2,6-dimethyl-morpholin-4-yl)-2-(2-methyl-pyrimidin-5-yl)-ethyl]-amide]", "values": [
      {"measurement": "IC50", "setting": "[1]", "result": 651, "unit": "nM"}
    ]},
    {"compound": "Cc1ncc(C(CNC(=O)c2ccc3[nH]ccc3c2Cl)N2CC(C)OC(C)C2)cn1", "note": "(single isomer, unassigned) [Example 42, 4-Chloro-1H-indole-5-carboxylic acid [2-(2,6-dimethyl-morpholin-4-yl)-2-(2-methyl-pyrimidin-5-yl)-ethyl]-amide]", "values": [
      {"measurement": "IC50", "setting": "[1]", "result": 36, "unit": "nM"}
    ]},
    {"compound": "Cc1ncc(C(CNC(=O)c2cc(C)c3[nH]ccc3c2Cl)N2CCOCC2)cn1", "note": "(single isomer, unassigned) [Example 96, 4-Chloro-7-methyl-1H-indole-5-carboxylic acid [2-(2-methyl-pyrimidin-5-yl)-2-morpholin-4-yl-ethyl]-amide]", "values": [
      {"measurement": "IC50", "setting": "[1]", "result": 9.6, "unit": "nM"}
    ]},
    {"compound": "Cc1ncc(C(CNC(=O)c2cc(C)c3[nH]ccc3c2Cl)N2CCOCC2)cn1", "note": "(single isomer, unassigned) [Example 97, 4-Chloro-7-methyl-1H-indole-5-carboxylic acid [2-(2-methyl-pyrimidin-5-yl)-2-morpholin-4-yl-ethyl]-amide]", "values": [
      {"measurement": "IC50", "setting": "[1]", "result": 10, "unit": "nM"}
    ]},
    {"compound": "Cc1ncc(C(CNC(=O)c2ccc3[nH]ccc3c2C)N2CCOCC2)cn1", "note": "(single isomer, unassigned) [Example 105, 4-Methyl-1H-indole-5-carboxylic acid [2-(2-methyl-pyrimidin-5-yl)-2-morpholin-4-yl-ethyl]-amide]", "values": [
      {"measurement": "IC50", "setting": "[1]", "result": 20, "unit": "nM"}
    ]},
    {"compound": "Cc1ncc(C(CNC(=O)c2ccc3[nH]ccc3c2C)N2CCOCC2)cn1", "note": "(single isomer, unassigned) [Example 106, 4-Methyl-1H-indole-5-carboxylic acid [2-(2-methyl-pyrimidin-5-yl)-2-morpholin-4-yl-ethyl]-amide]", "values": [
      {"measurement": "IC50", "setting": "[1]", "result": 25, "unit": "nM"}
    ]},
    {"compound": "COc1cc(C(=O)NCC(c2cnc(C)nc2)N2CCOCC2)c(Cl)c2cc[nH]c12", "note": "(single isomer, unassigned) [Example 114, 4-Chloro-7-methoxy-1H-indole-5-carboxylic acid [2-(2-methyl-pyrimidin-5-yl)-2-morpholin-4-yl-ethyl]-amide]", "values": [
      {"measurement": "IC50", "setting": "[1]", "result": 14, "unit": "nM"}
    ]},
    {"compound": "COc1cc(C(=O)NCC(c2cnc(C)nc2)N2CCOCC2)c(Cl)c2cc[nH]c12", "note": "(single isomer, unassigned) [Example 115, 4-Chloro-7-methoxy-1H-indole-5-carboxylic acid [2-(2-methyl-pyrimidin-5-yl)-2-morpholin-4-yl-ethyl]-amide]", "values": [
      {"measurement": "IC50", "setting": "[1]", "result": 8.2, "unit": "nM"}
    ]},
    {"compound": "CCc1cc(C(=O)NCC(c2cnc(C)nc2)N2CCOCC2)c(Cl)c2cc[nH]c12", "note": "(single isomer, unassigned) [Example 119, 4-Chloro-7-ethyl-1H-indole-5-carboxylic acid [2-(2-methyl-pyrimidin-5-yl)-2-morpholin-4-yl-ethyl]-amide]", "values": [
      {"measurement": "IC50", "setting": "[1]", "result": 16, "unit": "nM"}
    ]},
    {"compound": "Cc1ncc(C(CNC(=O)c2ccc3[nH]ccc3c2Cl)N2CC3CC2CO3)cn1", "note": "(centres unmarked) [Example 68, 4-Chloro-1H-indole-5-carboxylic acid [2-(2-methyl-pyrimidin-5-yl)-2-(2-oxa-5-aza-bicyclo[2.2.1]hept-5-yl)-ethyl]-amide]", "values": [
      {"measurement": "IC50", "setting": "[1]", "result": 2060, "unit": "nM"}
    ]},
    {"compound": "Cc1ncc(C(CNC(=O)c2ccc3[nH]ccc3c2Cl)N2CC3CC(C2)O3)cn1", "note": "(centres unmarked) [Example 95, 4-Chloro-1H-indole-5-carboxylic acid [2-(2-methyl-pyrimidin-5-yl)-2-(6-oxa-3-aza-bicyclo[3.1.1]hept-3-yl)-ethyl]-amide]", "values": [
      {"measurement": "IC50", "setting": "IC50, antagonistic activity with respect to the P2X7 receptor", "result": 28, "unit": "nM"}
    ]}
  ]
}
